Test results reported in PubChem BioAssay (NCI).
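48-hour exposure; five concentrations; linearly interpolated endpoints. TGI denotes the concentration required for complete inhibition of growth.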

Legend:
Experiment in all cases: inhibition of tumour cell growth, NCI panel, 48 h
786-0 renal = system: 786-0 renal
A498 renal = system: A498 renal
A549 NSCLC = system: A549 NSCLC
ACHN renal = system: ACHN renal
BT-549 breast = system: BT-549 breast
CAKI-1 renal = system: CAKI-1 renal
CCRF-CEM leukemia = system: CCRF-CEM leukemia
COLO 205 colon = system: COLO 205 colon
DU-145 prostate = system: DU-145 prostate
EKVX NSCLC = system: EKVX NSCLC
HCC-2998 colon = system: HCC-2998 colon
HCT-116 colon = system: HCT-116 colon
HCT-15 colon = system: HCT-15 colon
HL-60(TB) leukemia = system: HL-60(TB) leukemia
HOP-62 NSCLC = system: HOP-62 NSCLC
HOP-92 NSCLC = system: HOP-92 NSCLC
HS 578T breast = system: HS 578T breast
HT29 colon = system: HT29 colon
IGROV1 ovarian = system: IGROV1 ovarian
K-562 leukemia = system: K-562 leukemia
KM12 colon = system: KM12 colon
LOX IMVI melanoma = system: LOX IMVI melanoma
M14 melanoma = system: M14 melanoma
MALME-3M melanoma = system: MALME-3M melanoma
MCF7 breast = system: MCF7 breast
MDA-MB-231 breast = system: MDA-MB-231 breast
MDA-MB-435 = system: MDA-MB-435
MDA-N = system: MDA-N
MOLT-4 leukemia = system: MOLT-4 leukemia
NCI-H23 lung = system: NCI-H23 lung
NCI-H460 lung = system: NCI-H460 lung
NCI-H522 lung = system: NCI-H522 lung
NCI/ADR-RES ovarian = system: NCI/ADR-RES ovarian
OVCAR-3 ovarian = system: OVCAR-3 ovarian
OVCAR-4 ovarian = system: OVCAR-4 ovarian
OVCAR-5 ovarian = system: OVCAR-5 ovarian
OVCAR-8 ovarian = system: OVCAR-8 ovarian
PC-3 prostate = system: PC-3 prostate
RXF 393 renal = system: RXF 393 renal
SF-268 CNS = system: SF-268 CNS
SF-295 CNS = system: SF-295 CNS
SF-539 CNS = system: SF-539 CNS
SK-MEL-2 melanoma = system: SK-MEL-2 melanoma
SK-MEL-28 melanoma = system: SK-MEL-28 melanoma
SK-MEL-5 melanoma = system: SK-MEL-5 melanoma
SK-OV-3 ovarian = system: SK-OV-3 ovarian
SN12C renal = system: SN12C renal
SNB-19 CNS = system: SNB-19 CNS
SNB-75 CNS = system: SNB-75 CNS
SR leukemia = system: SR leukemia
SW-620 colon = system: SW-620 colon
T-47D breast = system: T-47D breast
TK-10 renal = system: TK-10 renal
U251 CNS = system: U251 CNS
UACC-257 melanoma = system: UACC-257 melanoma
UACC-62 melanoma = system: UACC-62 melanoma
UO-31 renal = system: UO-31 renal

Question: Which results are given for `CCNCCCNc1c2ccccc2nc2ccccc12`?
Answer: TGI (786-0 renal): 5.39 µM; TGI (A498 renal): 3.2 µM; TGI (A549 NSCLC): 3.38 µM; TGI (ACHN renal): 470 nM; TGI (BT-549 breast): 10.5 µM; TGI (CAKI-1 renal): 1230 nM; TGI (CCRF-CEM leukemia): 10.1 µM; TGI (COLO 205 colon): 761 nM; TGI (DU-145 prostate): 4.01 µM; TGI (EKVX NSCLC): 21.2 µM; TGI (HCC-2998 colon): 643 nM; TGI (HCT-116 colon): 8.36 µM; TGI (HCT-15 colon): 1540 nM; TGI (HL-60(TB) leukemia): 54.9 µM; TGI (HOP-62 NSCLC): 2370 nM; TGI (HOP-92 NSCLC): 3.11 µM; TGI (HS 578T breast): 3.13 µM; TGI (HT29 colon): > 100 µM; TGI (IGROV1 ovarian): 4.3 µM; TGI (K-562 leukemia): 1640 nM; TGI (KM12 colon): 2040 nM; TGI (LOX IMVI melanoma): 1080 nM; TGI (M14 melanoma): 950 nM; TGI (MALME-3M melanoma): 2260 nM; TGI (MCF7 breast): 625 nM; TGI (MDA-MB-231 breast): 2500 nM; TGI (MDA-MB-435): 1770 nM; TGI (MDA-N): 1260 nM; TGI (MOLT-4 leukemia): > 100 µM; TGI (NCI-H23 lung): 2140 nM; TGI (NCI-H460 lung): 585 nM; TGI (NCI-H522 lung): 700 nM; TGI (NCI/ADR-RES ovarian): 10.2 µM; TGI (OVCAR-3 ovarian): 2000 nM; TGI (OVCAR-4 ovarian): 3.2 µM; TGI (OVCAR-5 ovarian): 1040 nM; TGI (OVCAR-8 ovarian): 3.7 µM; TGI (PC-3 prostate): 816 nM; TGI (RXF 393 renal): 2830 nM; TGI (SF-268 CNS): 4.47 µM; TGI (SF-295 CNS): 2810 nM; TGI (SF-539 CNS): 1210 nM; TGI (SK-MEL-2 melanoma): 1950 nM; TGI (SK-MEL-28 melanoma): 1480 nM; TGI (SK-MEL-5 melanoma): 1470 nM; TGI (SK-OV-3 ovarian): 6.55 µM; TGI (SN12C renal): 2200 nM; TGI (SNB-19 CNS): 2980 nM; TGI (SNB-75 CNS): 1580 nM; TGI (SR leukemia): 1830 nM; TGI (SW-620 colon): 1460 nM; TGI (T-47D breast): 3.35 µM; TGI (TK-10 renal): 16 µM; TGI (U251 CNS): > 100 µM; TGI (UACC-257 melanoma): 1700 nM; TGI (UACC-62 melanoma): 1620 nM; TGI (UO-31 renal): 2630 nM

Question: With `c1csc(-c2cc(-c3ccsc3)c(-c3ccsc3)s2)c1` as the compound, how does the TGI (786-0 renal) read?
Answer: > 100 µM

Question: And the TGI (A498 renal)?
Answer: > 100 µM

Question: What about the TGI (A549 NSCLC) of the same compound?
Answer: > 100 µM

Question: What about the TGI (ACHN renal) of the same compound?
Answer: > 100000 nM

Question: What about the TGI (BT-549 breast) of the same compound?
Answer: > 100 µM

Question: What about the TGI (CAKI-1 renal) of the same compound?
Answer: > 100000 nM

Question: And the TGI (CCRF-CEM leukemia)?
Answer: > 100 µM

Question: And the TGI (COLO 205 colon)?
Answer: > 100000 nM

Question: What about the TGI (DU-145 prostate) of the same compound?
Answer: > 100 µM

Question: And the TGI (EKVX NSCLC)?
Answer: 90.8 µM

Question: And the TGI (HCC-2998 colon)?
Answer: > 100000 nM

Question: And the TGI (HCT-116 colon)?
Answer: > 100 µM

Question: What about the TGI (HCT-15 colon) of the same compound?
Answer: > 100000 nM

Question: What about the TGI (HOP-62 NSCLC) of the same compound?
Answer: > 100000 nM

Question: And the TGI (HOP-92 NSCLC)?
Answer: > 100 µM

Question: What about the TGI (HS 578T breast) of the same compound?
Answer: > 100 µM

Question: What about the TGI (HT29 colon) of the same compound?
Answer: > 100 µM

Question: And the TGI (IGROV1 ovarian)?
Answer: > 100 µM

Question: And the TGI (K-562 leukemia)?
Answer: > 100000 nM

Question: And the TGI (KM12 colon)?
Answer: > 100000 nM

Question: What about the TGI (M14 melanoma) of the same compound?
Answer: > 100000 nM

Question: And the TGI (MALME-3M melanoma)?
Answer: > 100000 nM

Question: What about the TGI (MCF7 breast) of the same compound?
Answer: > 100000 nM

Question: What about the TGI (MDA-MB-231 breast) of the same compound?
Answer: > 100000 nM

Question: What about the TGI (MDA-MB-435) of the same compound?
Answer: > 100000 nM

Question: What about the TGI (MDA-N) of the same compound?
Answer: > 100000 nM

Question: What about the TGI (MOLT-4 leukemia) of the same compound?
Answer: > 100 µM

Question: And the TGI (NCI-H23 lung)?
Answer: > 100000 nM

Question: And the TGI (NCI-H460 lung)?
Answer: > 100000 nM

Question: What about the TGI (NCI-H522 lung) of the same compound?
Answer: > 100000 nM

Question: What about the TGI (NCI/ADR-RES ovarian) of the same compound?
Answer: > 100 µM

Question: What about the TGI (OVCAR-3 ovarian) of the same compound?
Answer: > 100000 nM

Question: And the TGI (OVCAR-4 ovarian)?
Answer: > 100 µM

Question: And the TGI (OVCAR-5 ovarian)?
Answer: > 100000 nM

Question: What about the TGI (OVCAR-8 ovarian) of the same compound?
Answer: > 100 µM

Question: And the TGI (PC-3 prostate)?
Answer: > 100000 nM

Question: And the TGI (RXF 393 renal)?
Answer: > 100000 nM

Question: And the TGI (SF-268 CNS)?
Answer: > 100 µM

Question: What about the TGI (SF-295 CNS) of the same compound?
Answer: > 100000 nM

Question: What about the TGI (SF-539 CNS) of the same compound?
Answer: > 100000 nM

Question: What about the TGI (SK-MEL-28 melanoma) of the same compound?
Answer: > 100000 nM

Question: What about the TGI (SK-MEL-5 melanoma) of the same compound?
Answer: > 100000 nM

Question: And the TGI (SK-OV-3 ovarian)?
Answer: > 100 µM

Question: And the TGI (SN12C renal)?
Answer: > 100000 nM

Question: And the TGI (SNB-19 CNS)?
Answer: > 100000 nM

Question: What about the TGI (SNB-75 CNS) of the same compound?
Answer: > 100000 nM

Question: And the TGI (SR leukemia)?
Answer: > 100000 nM

Question: What about the TGI (SW-620 colon) of the same compound?
Answer: > 100000 nM

Question: And the TGI (T-47D breast)?
Answer: 54.2 µM

Question: What about the TGI (TK-10 renal) of the same compound?
Answer: > 100 µM

Question: And the TGI (U251 CNS)?
Answer: > 100 µM

Question: And the TGI (UACC-257 melanoma)?
Answer: > 100000 nM

Question: And the TGI (UACC-62 melanoma)?
Answer: > 100000 nM

Question: What about the TGI (UO-31 renal) of the same compound?
Answer: > 100000 nM
